Test results reported in patent publication US10787413B2, “Derivatives of curcuminoids and use thereof as an anticancer agent” (CHINA MEDICAL UNIVERSITY, priority 2016, dated 2020).
Where two headings read alike, the source gives them in different places.

Columns and labels:
[1] = system: MDA-MB-231 breast cancer cell; experiment: MTT cell viability assay, MDA-MB-231 breast cancer cell; format: cell-based, human; details: for IC50: Homo sapiens; for times more potent than curcumin (IC50): MDA-MB-231, 72 h treatment, curcumin IC50 16.23 μM
Method: Cell viability was evaluated by measuring the reduction in MTT to yield blue formazan. Cells were cultured in 96-well plates, allowed to attach overnight, and then treated with compounds. After treatment, MTT solution (1 mg/ml) was added to each well, and plates were incubated for another 4 h.

[2] = system: HCT-116 colon cancer cell; experiment: MTT cell viability assay, HCT-116 colon cancer cell; format: cell-based; details: Homo sapiens
Method: (§1) Cell viability was evaluated by measuring the reduction in MTT to yield blue formazan. Cells were cultured in 96-well plates, allowed to attach overnight, and then treated with compounds. After treatment, MTT solution (1 mg/ml) was added to each well, and plates were incubated for another 4 h. Medium were removed, blue formazan was dissolved in DMSO, and the absorbance was read at 570 nm^20.

[3] = system: PC3 prostate cancer cell; experiment: MTT cell viability assay, PC3 prostate cancer cell; format: cell-based
Method: as §1

[4] = system: Doxorubicin-resistant MDA-MB-231; experiment: Cell viability, Doxorubicin-resistant MDA-MB-231; format: cell-based
Method: as §1

[5] = Preliminary acute toxicity assay; details: oral 500 mg/kg/day for 5 consecutive days, 21 days observation, vs untreated control
Method: Normal mice were treated with 21a or 35a by oral route at 500 mg/kg/day for 5 consecutive days, following by 21 days of post-treatment observation. […] Detailed data for their toxicology and safety pharmacology studies will be carried out in the near future.
Female nu/nu mice (5 weeks old) were P.O. with vehicle (propylene glycol, 0.1 ml) or high dose of 21a (250 and 500 mg/kg) and 35a (500 mg/kg) for 5 days followed by observation of behavior and lethargy for 21 days.

[6] = system: MDA-MB-231 Xenograft; details: Doxorubicin alone, IP 1 mg/kg/day
Method: Female nu/nu mice (5 weeks old) were from National Laboratory Animal Center, Taipei, Taiwan. […] MDA-MB-231 breast cancer cells (5×10^6 cells per mouse) were suspended in 0.1 ml of Matrigel solution (50% (v/v) Matrigel in PBS) and inoculated into the mammary fat pads of the mice. […] Compounds was administered P.O. once every day for 32 days. Tumor size and mouse body weight were measured once every 4 days, and tumor volume (mm3) was calculated using the equation: length×(width)^2×0.5. At the end of experiments, mice were sacrificed and tumor nodules were dissected and weighed.

[7] = MDA-MB-231, 24 h, MDA-MB-231, treated 24 hours, read-out: IC50 24 hours
[8] = MDA-MB-231, 48 h, MDA-MB-231, treated 48 hours, read-out: IC50 48 hours
[9] = MDA-MB-231, 72 h, MDA-MB-231, treated 72 hours, read-out: IC50 72 hours
[10] = HCT-116, treated 24 hours, read-out: IC50 24 hours
[11] = HCT-116, treated 48 hours, read-out: IC50 48 hours
[12] = HCT-116, treated 72 hours, read-out: IC50 72 hours
[13] = PC-3, treated 24 hours, read-out: IC50 24 hours
[14] = PC-3, treated 48 hours, read-out: IC50 48 hours
[15] = PC-3, treated 72 hours, read-out: IC50 72 hours

SMILES | IC50 [1, 7] [µM] | IC50 [1, 8] [µM] | IC50 [1, 9] [µM] | IC50 [2, 10] [µM] | IC50 [2, 11] [µM] | IC50 [2, 12] [µM] | IC50 [3, 13] [µM] | IC50 [3, 14] [µM] | IC50 [3, 15] [µM] | melting point [°C] | times more potent than curcumin (IC50) [1] | times greater inhibitory activity than curcumin ([4]; Doxorubicin-resistant MDA-MB-231) [times] | IC50 ([4]; Homo sapiens, MDA-MB-231, 24 h, Doxorubicin-resistant MDA-MB-231, treated for 24 h) [µM] | body weight and behavior change [5] | reduction of MDA-MB-231 tumor weight compared with control group [6] [%]
CC(CO)(CO)C(=O)Oc1ccc(/C=C/C(=O)/C=C(O)/C=C/c2ccc(OC(=O)C(C)(CO)CO)cc2)cc1 [Compound 23a, ((1E,3Z,6E)-3-Hydroxy-5-oxohepta-1,3,6-triene-1,7-diyl)bis(4,1-phenylene) bis(3-hydroxy-2-(hydroxymethyl)-2-methylpropanoate)] | 26.7 ± 1.85 | 7.82 ± 0.56 | 6.74 | 57.4 ± 12.2 | 8.64 ± 0.18 | 4.1 ± 0.06 | 8.46 ± 0.64 | 8.77 ± 0.8 | 5.59 ± 0.2 | 192 to 194 | – | – | – | – | –
CC(CO)(CO)C(=O)Oc1ccc(/C=C/C(=O)/C=C(O)/C=C/c2ccc(O)cc2)cc1 [Compound 23b, 4-((1E,4Z,6E)-5-hydroxy-7-(4-hydroxyphenyl)-3-oxohept-1,4,6-trien-1-yl)phenyl 3-hydroxy-2-(hydroxymethyl)-2-methylpropanoate] | 19.5 ± 1.82 | 5.27 ± 0.57 | 1.33 | 71.9 ± 7.87 | 11.3 ± 0.72 | 4.78 ± 0.66 | 20.1 ± 2.62 | 11 ± 0.44 | 5.22 ± 0.27 | 206 to 208 | about 12 times | – | – | – | –
COc1ccc(/C=C/C(=O)CC(=O)/C=C/c2ccc(OC)c(OC(=O)C(C)(CO)CO)c2)cc1OC(=O)C(C)(CO)CO [Compound 24a, ((1E,6E)-3,5-Dioxohepta-1,6-diene-1,7-diyl)bis(2-methoxy-5,1-phenylene) bis(3-hydroxy-2-(hydroxymethyl)-2-methylpropanoate)] | 9.22 ± 2.24 | 5.11 ± 0.96 | 4.61 | 11.4 ± 1.11 | 5.33 ± 0.29 | 2.79 ± 0.15 | 11.9 ± 1.4 | 6.43 ± 0.26 | 4.74 ± 0.04 | 194 to 196 | about 3.5 times | – | – | – | –
COc1ccc(/C=C/C(=O)CC(=O)/C=C/c2ccc(OC)c(OC(=O)C(C)(CO)CO)c2)cc1O [Compound 24b, 5-((1E,6E)-7-(3-Hydroxy-4-methoxyphenyl)-3,5-dioxohepta-1,6-dien-1-yl)-2-methoxyphenyl 3-hydroxy-2-(hydroxymethyl)-2-methylpropanoate] | 7.69 ± 0.82 | 1.99 ± 0.99 | 2.29 | 7.57 ± 1.02 | 3.84 ± 0.41 | 1.95 ± 0.15 | 8.37 ± 0.81 | 3.75 ± 0.18 | 2.32 ± 0.05 | 184 to 186 | – | – | – | – | –
CCOc1cc(/C=C/C(=O)/C=C(O)/C=C/c2ccc(OC(=O)C(C)(CO)CO)c(OCC)c2)ccc1OC(=O)C(C)(CO)CO [Compound 26, ((1E,3Z,6E)-3-hydroxy-5-oxohepta-1,3,6-triene-1,7-diyl)bis(2-ethoxy-4,1-phenylene) bis(3-hydroxy-2-(hydroxymethyl)-2-methylpropanoate)] | 18.43 ± 0.15 | 8.85 ± 0.66 | 6.58 ± 0.81 | 8.33 ± 0.39 | 4.22 ± 0.05 | 3.79 ± 0.1 | 9.38 ± 0.01 | 9.53 ± 0.36 | 5.36 ± 0.07 | 153 to 155 | – | – | – | – | –
CCOc1cc(/C=C/C(=O)/C=C(O)/C=C/c2ccc(OC(=O)C(CC)(CO)CO)c(OCC)c2)ccc1OC(=O)C(CC)(CO)CO [Compound 27, ((1E,3Z,6E)-3-hydroxy-5-oxohepta-1,3,6-triene-1,7-diyl)bis(2-ethoxy-4,1-phenylene) bis(2,2-bis(hydroxymethyl)butanoate)] | 8.04 ± 0.17 | 7.43 ± 1.36 | 5.49 ± 0.52 | 3.79 ± 0.03 | 3.18 ± 0.26 | 2.97 ± 0.13 | 8.18 ± 1.89 | 4.46 ± 0.15 | 3.06 ± 0.29 | 161 to 162 | – | – | – | – | –
COc1ccc(/C=C/C(O)=C/C(=O)/C=C/c2ccc(OC(=O)C(C)(CO)CO)c(OC)c2)cc1OC [Compound 33, 4-((1E,4Z,6E)-7-(3,4-dimethoxyphenyl)-5-hydroxy-3-oxohepta-1,4,6-triene-1-yl)-2-methoxyphenyl 3-hydroxy-2-(hydroxymethyl)-2-methylpropanoate] | 4.69 ± 0.73 | 3.12 ± 0.17 | 2.55 | 10.5 ± 0.64 | 7.56 ± 0.77 | 4.77 ± 0.24 | 7.77 ± 0.88 | 7.85 ± 0.81 | 7.64 ± 0.75 | 99 to 101 | – | – | – | – | –
COc1cc(/C=C/C(=O)C(C)(C)C(=O)/C=C/c2ccc(OC(=O)C(C)(CO)CO)c(OC)c2)ccc1OC(=O)C(C)(CO)CO [Compound 35a, ((1E,6)-4,4-Dimethyl-3,5-dioxohept-1,6-diene-1,7-diyl)bis(2-methoxy-4,1-phenylene) bis(3-hydroxy-2-(hydroxymethyl)-2-methylpropanoate)] | 5.33 ± 0.69 | – | 1.98 | 6.67 ± 0.43 | 3.35 ± 0.09 | 1.65 ± 0.16 | 3.49 ± 0.4 | – | 1.76 ± 0.14 | – | 8.2 times | 10 | 5.7 | no significant difference | –
CCC(CC)(C(=O)/C=C/c1ccc(OC(=O)C(C)(CO)CO)c(OC)c1)C(=O)/C=C/c1ccc(OC(=O)C(C)(CO)CO)c(OC)c1 [Compound 35b, ((1E,6E)-4,4-Diethyl-3,5-dioxohepta-1,6-diene-1,7-diyl)bis(2-methoxy-4,1-phenylene) bis(3-hydroxy-2-(hydroxymethyl)-2-methylpropanoate)] | 8.64 ± 0.27 | – | 2 ± 0.02 | 7.71 ± 0.03 | – | 1.74 ± 0.02 | 8.7 ± 0.14 | 3.67 ± 0.25 | 2.16 ± 0.12 | 189 to 191 | – | – | – | – | –
C=CCC(CC=C)(C(=O)/C=C/c1ccc(OC(=O)C(C)(CO)CO)c(OC)c1)C(=O)/C=C/c1ccc(OC(=O)C(C)(CO)CO)c(OC)c1 [Compound 35e, ((1E,6E)-4,4-diallyl-3,5-dioxohepta-1,6-diene-1,7-diyl)bis(2-methoxy-4,1-phenylene) bis(3-hydroxy-2-(hydroxymethyl)-2-methylpropanoate)] | 9.02 ± 0.5 | – | 0.71 | 2.18 ± 0.22 | – | 0.71 ± 0.01 | 4.24 ± 0.18 | 3.54 ± 0.26 | 2.63 ± 0.77 | 195 to 197 | – | – | – | – | –
COc1cc(/C=C/C(=O)C(CO)(CO)C(=O)/C=C/c2ccc(OC(=O)C(C)(CO)CO)c(OC)c2)ccc1OC(=O)C(C)(CO)CO [Compound 40, ((1E,6E)-4,4-bis(hydroxymethyl)-3,5-dioxohepta-1,6-diene-1,7-diyl)bis(2-methoxy-4-phenylene) bis(3-hydroxy-2-(hydroxymethyl)-2-methylpropanoate)] | > 100 | 84.9 ± 1.67 | 57.9 ± 2.73 | > 100 | 69.1 ± 3.11 | 58.04 ± 0.53 | > 100 | > 100 | 74.6 ± 2.04 | 234 to 237 | – | – | – | – | –
COc1cccc2c1C(=O)c1c(O)c3c(c(O)c1C2=O)C[C@@](O)(C(=O)CO)C[C@@H]3O[C@H]1C[C@H](N)[C@H](O)[C@H](C)O1 [Doxorubicin, reference compound] | – | – | – | – | – | – | – | – | – | – | – | – | – | – | 60
